Results from publication PMC8480776, “Selenium Derivatives as Promising Therapy for Chagas Disease: In Vitro and In Vivo Studies” (ACS Infectious Diseases, 2021).
Where two headings read alike, the source gives them in different places.

Key:
[1] = system: epimastigotes of T. cruzi Arequipa strain; test: Flow cytometry analysis of nucleic acid levels (acridine orange); format: cell-based, Trypanosoma cruzi; details: IC25 concentrations, 72 h
[2] = system: T. cruzi epimastigotes, SN3 strain; test: Screening against extracellular epimastigotes, SN3 strain; format: cell-based, Trypanosoma cruzi
[3] = system: T. cruzi epimastigotes, Arequipa strain; test: Screening against extracellular epimastigotes, Arequipa strain; format: cell-based, Trypanosoma cruzi
[4] = format: in vivo, BALB/c mice; details: variation vs control
Description: (§1) Female BALB/c mice aged 10–12 weeks and with a size of 20–24 g were divided into five groups (n = 3 per group): 0, negative control group (uninfected and untreated mice); I, positive control group (infected and untreated mice); II, BZN group (infected mice treated with BZN); III, 26 group (infected mice treated with 26); and IV, 28 group (infected mice treated with 28).
(§2) The tested selenocompounds and BZN were prepared at 2 mg·mL^–1 in an aqueous suspension vehicle containing 5% (v/v) DMSO and 0.5% (w/v) hydroxypropyl methylcellulose, as previously reported.[52] Compounds (20 mg·kg^–1 per day) were administered for 5 consecutive days (total dosages of 100 mg·kg^–1), and vehicle only was administered in the negative and positive control groups. Treatments began when the infection was confirmed (9 dpi) for acute-phase-treated mice, and when it was established that the animals moved into the chronic phase (100 dpi, for chronic-phase-treated mice; Scheme 1).
Serum samples obtained from blood in several days post-infection (Scheme 1) were sent to the Biochemical Service (University of Granada) to measure a series of biochemical parameters with the commercial Cromakit using a clinical chemistry analyzer (BS-200, Shenzhen Mindray Biomedical Electronics Co., LTD), as previously described.[41]

[5] = system: T. cruzi amastigotes, Arequipa strain; test: Screening against intracellular amastigotes, Arequipa strain; format: cell-based, Trypanosoma cruzi
[6] = system: T. cruzi trypomastigotes, Tulahuen strain; test: Screening against bloodstream trypomastigotes, Tulahuen strain; format: cell-based, Trypanosoma cruzi
[7] = system: T. cruzi amastigotes, SN3 strain; test: Screening against intracellular amastigotes, SN3 strain; format: cell-based, Trypanosoma cruzi
[8] = system: Vero cells infected with T. cruzi Arequipa strain; test: Infection rate in Vero cells (infected cells), Arequipa strain; format: cell-based; details: Trypanosoma cruzi, 72 h of treatment
Trypanosoma cruzi Fe-SOD = test: SOD enzymatic inhibition, Fe-SOD; format: biochemical
Vero cells = test: Cytotoxicity test on Vero cells; format: cell-based; details: Chlorocebus sabaeus, 48 h + 24 h resazurin, read-out: Toxicity IC50 Vero cell
[9] = system: T. cruzi trypomastigotes, Arequipa strain; test: Screening against bloodstream trypomastigotes, Arequipa strain; format: cell-based, Trypanosoma cruzi
[10] = biological target: T1, human erythrocytes CuZn-SOD (Homo sapiens, UniProt P00441); test: SOD enzymatic inhibition, CuZn-SOD; format: biochemical
T1 construct: commercial copper/zinc superoxide dismutase (Cu/Zn-SOD) from human erythrocytes (Sigma-Aldrich); purchased Sigma-Aldrich; host or cells: human erythrocytes (natural source)
T1 sequence (P00441 whole entry): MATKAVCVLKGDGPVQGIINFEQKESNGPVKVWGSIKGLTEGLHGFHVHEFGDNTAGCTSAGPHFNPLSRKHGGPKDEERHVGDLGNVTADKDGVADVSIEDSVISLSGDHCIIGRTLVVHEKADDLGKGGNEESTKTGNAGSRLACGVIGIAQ

[11] = system: T. cruzi amastigotes, Tulahuen strain; test: Screening against intracellular amastigotes, Tulahuen strain; format: cell-based, Trypanosoma cruzi
T. cruzi Arequipa strain = test: In vivo trypanocidal activity on BALB/c mice (acute and chronic Chagas disease); parameters: species or system Trypanosoma cruzi
Description: as §1
Mice were infected by intraperitoneal injection of 5 × 10^5 BTs of T. cruzi Arequipa strain per mouse in 200 μL PBS.[42] Subsequently, the treatment was intraperitoneally administered (∼200 μL) once daily for 5 consecutive days.
as §2
[…]. Parasitemia was expressed as parasites·mL^–1.
Immunosuppression was performed by intraperitoneal injection of three doses of 200 mg·kg^–1 of ISOPAC CP at 3–4 day intervals (Scheme 1), as previously reported.[53] Mice were closely monitored for side effects or for secondary infections due to immunosuppression. Within 7 days after the last CP injection, parasitemia reactivation was determined by counting BTs according the procedure described for parasitemia in the acute phase.[42]
On 145 dpi, the mice were euthanized using CO2, followed by exsanguination via cardiac puncture, and blood was collected. […]. In addition, spleens were weighed to assess splenomegaly.[42]
DNA extraction of the post-mortem organs/tissues was performed using Wizard Genomic DNA Purification Kit,[41] and the extracted DNA was subjected to amplification by PCR based on the spliced leader (SL) intergenic region sequence of T. cruzi (for detailed description, see literature reported previously).[55] Finally, the PCR products were resolved by electrophoresis on a 2% agarose gel (containing GelRed nucleic gel stain) for 90 min at 90 V.
Circulating antibodies in serum against both antigens were quantitatively evaluated in triplicate by the ELISA test in 96-well plates using diluted serum samples (1:80 in PBS), as previously described.[41]

[12] = system: T. cruzi trypomastigotes, SN3 strain; test: Screening against bloodstream trypomastigotes, SN3 strain; format: cell-based, Trypanosoma cruzi
[13] = system: T. cruzi epimastigotes, Tulahuen strain; test: Screening against extracellular epimastigotes, Tulahuen strain; format: cell-based, Trypanosoma cruzi
[14] = IC50 Vero cells/IC50 epimastigotes
[15] = treatment in acute phase, 15th dpi (2 days after treatment)
[16] = treatment in acute phase, necropsy day
[17] = treatment in chronic phase, 106th dpi (2 days after treatment)
[18] = treatment in chronic phase, necropsy day
[19] = IC50 Vero cells/IC50 amastigotes
[20] = IC50 Vero cells/IC50 trypomastigotes
[21] = 20 mg·kg–1 per day i.p. 5 days from 9 dpi
[22] = 20 mg·kg–1 per day i.p. 5 days from 100 dpi
[23] = 20 mg·kg–1 per day i.p. for 5 days from 9 dpi

N#C[Se]c1ccc(NC(=O)c2ccc(C(F)(F)F)cc2)cc1 [Compound 26]
inhibition of nucleic acid levels [1]: 47%
Selectivity index (SI), epimastigotes, SN3 strain [2, 14]: 64
IC50 ([2]; Trypanosoma cruzi, 48 h + 24 h resazurin, read-out: Activity IC50, epimastigote form, SN3 strain): 2.1 ± 0.3 µM
Selectivity index (SI), epimastigotes, Arequipa strain [3, 14]: 84
IC50 ([3]; Trypanosoma cruzi, 48 h + 24 h resazurin, read-out: Activity IC50, epimastigote form, Arequipa strain): 1.6 ± 0.3 µM
ALP (liver marker) [4, 15]: + (+/-, 10-20% increase/decrease over the range)
ALT/GPT (liver marker) [4, 15]: ++ (++/--, 20-30% increase/decrease over the range)
AST/GOT (liver marker) [4, 15]: ++ (++/--, 20-30% increase/decrease over the range)
CK-MB (heart marker) [4, 15]: ++++ (++++/----, ˃ 40% increase/decrease over the range)
LDH (heart marker) [4, 15]: + (+/-, 10-20% increase/decrease over the range)
Total bilirubin (liver marker) [4, 15]: ++ (++/--, 20-30% increase/decrease over the range)
Urea (kidney marker) [4, 15]: -- (++/--, 20-30% increase/decrease over the range)
Uric acid (kidney marker) [4, 15]: ---- (++++/----, ˃ 40% increase/decrease over the range)
ALP (liver marker) [4, 16]: ++ (++/--, 20-30% increase/decrease over the range)
ALT/GPT (liver marker) [4, 16]: ++ (++/--, 20-30% increase/decrease over the range)
AST/GOT (liver marker) [4, 16]: = (=, variation ≤ 10%)
CK-MB (heart marker) [4, 16]: = (=, variation ≤ 10%)
LDH (heart marker) [4, 16]: = (=, variation ≤ 10%)
Total bilirubin (liver marker) [4, 16]: + (+/-, 10-20% increase/decrease over the range)
Urea (kidney marker) [4, 16]: = (=, variation ≤ 10%)
Uric acid (kidney marker) [4, 16]: = (=, variation ≤ 10%)
ALP (liver marker) [4, 17]: = (=, variation ≤ 10%)
ALT/GPT (liver marker) [4, 17]: ++ (++/--, 20-30% increase/decrease over the range)
AST/GOT (liver marker) [4, 17]: +++ (+++/---, 30-40% increase/decrease over the range)
CK-MB (heart marker) [4, 17]: + (+/-, 10-20% increase/decrease over the range)
LDH (heart marker) [4, 17]: = (=, variation ≤ 10%)
Total bilirubin (liver marker) [4, 17]: +++ (+++/---, 30-40% increase/decrease over the range)
Urea (kidney marker) [4, 17]: --- (+++/---, 30-40% increase/decrease over the range)
Uric acid (kidney marker) [4, 17]: - (+/-, 10-20% increase/decrease over the range)
ALP (liver marker) [4, 18]: = (=, variation ≤ 10%)
ALT/GPT (liver marker) [4, 18]: = (=, variation ≤ 10%)
AST/GOT (liver marker) [4, 18]: = (=, variation ≤ 10%)
CK-MB (heart marker) [4, 18]: + (+/-, 10-20% increase/decrease over the range)
LDH (heart marker) [4, 18]: = (=, variation ≤ 10%)
Total bilirubin (liver marker) [4, 18]: ++ (++/--, 20-30% increase/decrease over the range)
Urea (kidney marker) [4, 18]: = (=, variation ≤ 10%)
Uric acid (kidney marker) [4, 18]: - (+/-, 10-20% increase/decrease over the range)
selectivity index (SI), Arequipa strain, am. forms [5, 19]: 25
IC50 ([5]; Trypanosoma cruzi, amastigotes in Vero cells, 72 h, read-out: activity IC50, Arequipa strain, am. forms): 5.4 ± 0.7 µM
selectivity index (SI), Tulahuen strain, trypom. forms [6, 20]: 46
IC50 ([6]; Trypanosoma cruzi, TULAHUEN, bloodstream trypomastigotes, 24 h + 4 h resazurin, read-out: activity IC50, Tulahuen strain, trypom. forms): 2.9 ± 0.2 µM
selectivity index (SI), SN3 strain, am. forms [7, 19]: 34
IC50 ([7]; Trypanosoma cruzi, amastigotes in Vero cells, 72 h, read-out: activity IC50, SN3 strain, am. forms): 3.9 ± 0.5 µM
IC50 [8]: 22.4 µM
IC50 (Trypanosoma cruzi Fe-SOD): 51.9 µM
CC50 (Vero cells): 134 ± 11.3 µM
selectivity index (SI), Arequipa strain, trypom. forms [9, 20]: 56
IC50 ([9]; Trypanosoma cruzi, bloodstream trypomastigotes, 24 h + 4 h resazurin, read-out: activity IC50, Arequipa strain, trypom. forms): 2.4 ± 0.3 µM
IC50 [10]: > 100 µM
selectivity index (SI), Tulahuen strain, am. forms [11, 19]: 27
IC50 ([11]; Trypanosoma cruzi, TULAHUEN, amastigotes in Vero cells, 72 h, read-out: activity IC50, Tulahuen strain, am. forms): 4.9 ± 0.3 µM
anti-T. cruzi IgG levels (ELISA), acute phase treatment (T. cruzi Arequipa strain; [21]): lower IgG values than the treated with BZN at the beginning of the treatment
splenomegaly reduction in comparison with untreated mice, acute phase treatment (T. cruzi Arequipa strain; [21]): 49%
parasitaemia reactivation after immunosuppression, acute phase treatment (T. cruzi Arequipa strain; 20 mg·kg–1 per day i.p. 5 days from 9 dpi, compared to untreated group): approximately 65%
parasite-free organs/tissues by PCR, acute phase treatment (T. cruzi Arequipa strain; 20 mg·kg–1 per day i.p. 5 days from 9 dpi, necropsy 145 dpi): 42.9%
anti-T. cruzi IgG levels (ELISA), chronic phase treatment (T. cruzi Arequipa strain; [22]): similar
splenomegaly reduction in comparison with untreated mice, chronic phase treatment (T. cruzi Arequipa strain; [22]): 38%
parasitaemia reactivation after immunosuppression, chronic phase treatment (T. cruzi Arequipa strain; 20 mg·kg–1 per day i.p. 5 days from 100 dpi, compared to untreated group): ~60%
parasite-free organs/tissues by PCR, chronic phase treatment (T. cruzi Arequipa strain; 20 mg·kg–1 per day i.p. 5 days from 100 dpi, necropsy 145 dpi): 42.9%
day at which parasitaemia was resolved (T. cruzi Arequipa strain; [23]): 48 dpi
parasitaemia profile during the acute phase (T. cruzi Arequipa strain; [23]): better activity profile compared to that of BZN
selectivity index (SI), SN3 strain, trypom. forms [12, 20]: 52
IC50 ([12]; Trypanosoma cruzi, bloodstream trypomastigotes, 24 h + 4 h resazurin, read-out: activity IC50, SN3 strain, trypom. forms): 2.5 ± 0.3 µM
Selectivity index (SI), epimastigotes, Tulahuen strain [13, 14]: 52
IC50 ([13]; Trypanosoma cruzi, TULAHUEN, 48 h + 24 h resazurin, read-out: Activity IC50, epimastigote form, Tulahuen strain): 2.6 ± 0.4 µM
